Tested on: lipoxygenase
Assay: Lipoxygenase inhibition: release of leucotriene B4 (LTB4) from polymorphonuclear rat leucocytes (PMN) after Ca-ionophor, reverse phase HPLC
Assay type: cell-based
Conditions: RP-HPLC, read-out: LO inhibition IC50
Protocol: The release of leucotriene B4 (LTB4) from polymorphonuclear rat leucocytes (PMN) following addition of substances and a Ca-ionophor was determined by means of reverse phase HPLC by the method of Borgeat, P. et al., Proc. Nat. Acad. Sci. (USA) 76, 2148-2152 (1979) as a measure of lipoxygenase inhibition. The values achieved in this test with some compounds according to the invention are listed by way of example in Table 1: […]

Row | SMILES | IC50
1 | O=C(O)C(CC1CC1)c1ccc(OCc2ccc3ccccc3n2)cc1 (stereo not drawn) [Example 7, 2-[4-(Quinolin-2-yl-methoxy)phenyl]-3-cyclopropylpropionic acid] | 140 nM
2 | O=C(O)C(CC1CCCCC1)c1ccc(OCc2ccc3ccccc3n2)cc1 (stereo not drawn) [Example 8, 2-[4-(Quinolin-2-yl-methoxy)phenyl]-3-cyclohexylpropionic acid] | 10 nM
3 | O=C(O)C(c1ccc(OCc2ccc3ccccc3n2)cc1)C1CCCC1 (stereo not drawn) [Example 9, 2-[4-(Quinolin-2-yl-methoxy)phenyl]-2-cyclopentylacetic acid] | 40 nM
